{
  "source": "paper PMC7140522",
  "about": "“The Pyrazolo[3,4-d]pyrimidine Derivative, SCO-201, Reverses Multidrug Resistance Mediated by ABCG2/BCRP” (Cells, 2020)",
  "key": {"CYP1A2": {"system": "CYP1A2", "experiment": "CYP induction in human hepatocytes, CYP1A2 mRNA", "type": "in vitro ADME", "conditions": "plated human hepatocytes"}, "HT29SN-38-RES cells": {"system": "HT29SN-38-RES cells", "experiment": "MDR reversal analysis with MTT assay, HT29SN-38-RES", "type": "cell-based, human", "conditions": "72 hours, oxaliplatin is not a substrate for BCRP", "procedure": "Control conditions consisted of full growth medium. All treatments were performed in triplicate."}, "CYP3A [1]": {"system": "CYP3A", "experiment": "CYP induction in human hepatocytes, CYP3A mRNA", "type": "in vitro ADME", "conditions": "plated human hepatocytes"}, "ABCG2": {"molecular_target": "T1, ABCG2 (Homo sapiens, UniProt Q9UNQ0)", "T1 construct": "expressed in transfected cells; host or cells: MDCK-II (canine kidney)", "experiment": "Pheophorbide A accumulation assay in MDCK cells", "type": "cell-based", "conditions": "flow cytometry", "from_the_text": "67 literature as a standard inhibitor for potency assessment of new compounds, was used as a\n69 intra cellular fluorescence values in the steady state measured by flow cytometry for each\n73 experiment is depicted."}, "CYP3A [2]": {"molecular_target": "CYP3A (Homo sapiens, UniProt P08684)", "sequence (P08684 2-503)": "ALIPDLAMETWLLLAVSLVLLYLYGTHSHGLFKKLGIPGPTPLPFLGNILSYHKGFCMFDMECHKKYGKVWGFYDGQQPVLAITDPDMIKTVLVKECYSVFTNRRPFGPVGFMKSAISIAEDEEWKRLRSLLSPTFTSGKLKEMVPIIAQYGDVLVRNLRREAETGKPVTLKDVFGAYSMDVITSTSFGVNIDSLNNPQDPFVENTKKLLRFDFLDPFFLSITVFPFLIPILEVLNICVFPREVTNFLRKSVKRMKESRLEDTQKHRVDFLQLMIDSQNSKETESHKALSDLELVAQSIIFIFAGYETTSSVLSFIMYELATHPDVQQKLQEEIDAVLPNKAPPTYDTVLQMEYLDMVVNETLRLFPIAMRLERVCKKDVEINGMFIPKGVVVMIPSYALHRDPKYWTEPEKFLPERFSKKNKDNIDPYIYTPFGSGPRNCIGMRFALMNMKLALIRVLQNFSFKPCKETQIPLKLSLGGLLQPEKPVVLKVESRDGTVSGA", "experiment": "in vitro", "conditions": "both, pooled human liver microsomes, pH 7.4, probe testosterone"}, "CYP2C8": {"molecular_target": "CYP2C8 (Homo sapiens, UniProt P10632)", "sequence (P10632 whole entry)": "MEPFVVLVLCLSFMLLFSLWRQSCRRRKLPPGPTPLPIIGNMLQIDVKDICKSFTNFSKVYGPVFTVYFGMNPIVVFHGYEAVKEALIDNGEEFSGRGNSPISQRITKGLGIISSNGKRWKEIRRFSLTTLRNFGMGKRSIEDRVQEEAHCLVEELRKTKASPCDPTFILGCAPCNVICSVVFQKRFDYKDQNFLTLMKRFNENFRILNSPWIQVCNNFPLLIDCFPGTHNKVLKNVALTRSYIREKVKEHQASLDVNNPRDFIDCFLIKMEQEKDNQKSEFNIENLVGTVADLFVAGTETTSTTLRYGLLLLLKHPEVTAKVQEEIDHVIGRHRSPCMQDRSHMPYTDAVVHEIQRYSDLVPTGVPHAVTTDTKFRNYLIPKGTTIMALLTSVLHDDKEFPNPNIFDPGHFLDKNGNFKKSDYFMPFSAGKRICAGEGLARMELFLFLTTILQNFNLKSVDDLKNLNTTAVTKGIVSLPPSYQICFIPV", "experiment": "biochemical"}, "CYP2C9": {"molecular_target": "CYP2C9 (Homo sapiens, UniProt P11712)", "sequence (P11712 whole entry)": "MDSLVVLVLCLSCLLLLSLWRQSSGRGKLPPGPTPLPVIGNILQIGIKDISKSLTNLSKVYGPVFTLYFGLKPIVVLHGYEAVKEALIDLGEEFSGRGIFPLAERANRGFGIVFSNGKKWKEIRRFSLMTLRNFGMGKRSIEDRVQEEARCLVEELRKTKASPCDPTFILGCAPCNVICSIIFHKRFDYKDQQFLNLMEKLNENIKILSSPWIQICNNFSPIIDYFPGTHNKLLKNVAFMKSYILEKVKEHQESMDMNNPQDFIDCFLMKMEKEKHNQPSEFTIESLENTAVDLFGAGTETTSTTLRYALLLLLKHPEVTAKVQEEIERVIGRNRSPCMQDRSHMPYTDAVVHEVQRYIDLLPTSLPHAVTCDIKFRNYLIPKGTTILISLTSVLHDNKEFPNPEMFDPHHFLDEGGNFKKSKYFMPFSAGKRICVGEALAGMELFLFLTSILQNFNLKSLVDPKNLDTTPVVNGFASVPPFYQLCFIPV", "experiment": "CYP inhibition, CYP2C9", "type": "in vitro ADME", "conditions": "Human liver microsomes, diclofenac substrate"}, "CYP2B6 [3]": {"system": "CYP2B6", "experiment": "CYP induction in human hepatocytes, CYP2B6 enzyme activity", "type": "in vitro ADME"}, "CYP1A": {"system": "CYP1A", "experiment": "CYP induction in human hepatocytes, CYP1A enzyme activity", "type": "in vitro ADME"}, "[4]": {"system": "CYP1A, CYP2B6, CYP2C8, CYP2C9, CYP2C19, CYP2D6, CYP3A", "experiment": "in vitro", "conditions": "both, human, pooled human liver microsomes, pH 7.4", "method": "The reaction was initiated by adding a Nicotinamide adenine dinucleotide phosphate (NADPH)-generating system. The reaction was allowed for 10 min and stopped by transferring the reaction mixture to acetonitrile/methanol. Samples were mixed and centrifuged. Supernatants were used for HPLC-MS/MS of the respective metabolite.\nData analysis: Peak areas corresponding to the metabolite were recorded. The percent of control activity was calculated by comparing the peak area in the presence of the test compound to the control samples containing the same solvent. […] The IC50 value (concentration causing a half-maximal inhibition of the control value) was determined by non-linear regression analysis of the concentration–response curve using the Hill equation."}, "CYP2B6 [5]": {"system": "CYP2B6", "experiment": "CYP induction in human hepatocytes, CYP2B6 mRNA", "type": "in vitro ADME", "conditions": "plated human hepatocytes"}, "[6]": {"parameters": "method as in PMID 26260222", "conditions": "cited from earlier work"}, "BCRP": {"molecular_target": "T2, BCRP (Homo sapiens, UniProt Q9UNQ0)", "T2 sequence (Q9UNQ0 1-655)": "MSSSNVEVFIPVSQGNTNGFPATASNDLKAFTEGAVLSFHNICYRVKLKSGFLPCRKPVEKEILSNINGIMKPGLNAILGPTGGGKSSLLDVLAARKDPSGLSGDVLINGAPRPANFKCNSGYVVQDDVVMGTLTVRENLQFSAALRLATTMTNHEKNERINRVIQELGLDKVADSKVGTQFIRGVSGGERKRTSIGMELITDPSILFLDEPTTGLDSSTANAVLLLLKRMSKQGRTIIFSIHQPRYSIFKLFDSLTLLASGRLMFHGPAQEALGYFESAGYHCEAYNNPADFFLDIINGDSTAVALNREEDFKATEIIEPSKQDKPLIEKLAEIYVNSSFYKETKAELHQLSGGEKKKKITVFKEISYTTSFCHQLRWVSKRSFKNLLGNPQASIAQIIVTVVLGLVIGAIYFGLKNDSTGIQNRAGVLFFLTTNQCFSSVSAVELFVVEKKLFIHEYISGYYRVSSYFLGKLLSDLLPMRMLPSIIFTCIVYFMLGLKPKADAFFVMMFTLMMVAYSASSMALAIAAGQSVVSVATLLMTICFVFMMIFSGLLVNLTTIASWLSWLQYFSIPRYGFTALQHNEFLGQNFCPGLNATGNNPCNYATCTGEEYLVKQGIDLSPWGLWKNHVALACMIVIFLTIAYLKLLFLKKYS", "experiment": "Fluorometric transporter inhibition, BCRP-CHO", "type": "in vitro ADME", "conditions": "Hoechst 33342 substrate", "procedure": "Cells were seeded in a 96-well plate (20,000 cells/well) and used on days 2 or 3 post-seeding. […] Subsequently, substrate was added to the plate followed by 20 min incubation at 37 °C. The plate was then washed with cold assay buffer followed by fluorescence reading on a plate reader. The tested transporters, cell lines, substrates, and reference inhibitors are shown in the Supplementary Materials (Tables S1 and S2).\n110 Table S1. […]\n120 transporters (P-gp and BCRP), increased fluorescence signal represents inhibition of the transporter activity.\nThe IC50 values are shown for the analysed transporters with […]"}, "ABCG2 (BCRP)": {"molecular_target": "T3, ABCG2 (BCRP) (Homo sapiens, UniProt Q9UNQ0)", "T3 construct": "expressed in transfected cells; host or cells: MDCK-II (canine kidney)", "experiment": "Hoechst 33342 accumulation assay in MDCK-II-BCRP cells", "type": "cell-based", "conditions": "MDCK cells overexpressing BCRP, steady-state fluorescence", "method": "Dose–response curves were fitted by nonlinear regression using the four-parameter or three-parameter logistic equation, whichever was statistically preferred (GraphPad Prism, version 6.0, San Diego, CA, USA).\n46 72 hours with the indicated concentrations of drugs.\n49 example is shown. Error bars indicate standard deviations.\n57 was used as a comparator.\n58 tested and fluorescence values in the steady state measured for each concentration. The IC50-values\nA representative experiment is depicted."}, "[7]": {"conditions": "Donor 1, read-out: Mean Fold Induction of mRNA at 1× 10^−4 M"}, "[8]": {"conditions": "Donor 2, read-out: Mean Fold Induction of mRNA at 1× 10^−4 M"}, "[9]": {"conditions": "Donor 3, read-out: Mean Fold Induction of mRNA at 1× 10^−4 M"}},
  "note": "Read-outs that look alike come from different tables or passages of the source.",
  "data": [
    {"smiles": "Nc1nc(-c2ccccc2)nc2[nH]nc(Nc3ccc(C(F)(F)F)cc3)c12", "note": "[SCO-201]", "values": [
      {"measurement": "fold induction at 2 days", "setting": "CYP1A2; [7]", "value": 0.24},
      {"measurement": "fold induction at 2 days", "setting": "CYP1A2; [8]", "value": 0.39},
      {"measurement": "fold induction at 2 days", "setting": "CYP1A2; [9]", "value": 0.26},
      {"measurement": "combinatorial effect with oxaliplatin on cell viability", "setting": "HT29SN-38-RES cells", "value": "no added effects"},
      {"measurement": "fold induction at 2 days", "setting": "CYP3A [1]; [7]", "value": 0.25},
      {"measurement": "fold induction at 2 days", "setting": "CYP3A [1]; [8]", "value": 0.25},
      {"measurement": "fold induction at 2 days", "setting": "CYP3A [1]; [9]", "value": 0.32},
      {"measurement": "IC50", "setting": "ABCG2", "value": 145, "unit": "nM"},
      {"measurement": "IC50 at 10 min", "setting": "CYP3A [2]", "value": "> 100000", "unit": "nM"},
      {"measurement": "IC50", "setting": "CYP2C8", "value": "> 100000", "unit": "nM"},
      {"measurement": "IC50", "setting": "CYP2C9", "value": "> 100000", "unit": "nM"},
      {"measurement": "Mean Fold Enzyme Activity Induction at 1 × 10^−4 M", "setting": "CYP2B6 [3]; Donor 1", "value": 0.8},
      {"measurement": "Mean Fold Enzyme Activity Induction at 1 × 10^−4 M", "setting": "CYP2B6 [3]; Donor 2", "value": 0.9},
      {"measurement": "Mean Fold Enzyme Activity Induction at 1 × 10^−4 M", "setting": "CYP2B6 [3]; Donor 3", "value": 0.6},
      {"measurement": "Mean Fold Enzyme Activity Induction at 1 × 10^−4 M", "setting": "CYP1A; Donor 1", "value": 1},
      {"measurement": "Mean Fold Enzyme Activity Induction at 1 × 10^−4 M", "setting": "CYP1A; Donor 2", "value": 0.7},
      {"measurement": "Mean Fold Enzyme Activity Induction at 1 × 10^−4 M", "setting": "CYP1A; Donor 3", "value": 0.7},
      {"measurement": "IC50 at 10 min", "setting": "[4]", "value": "≥ 100000", "unit": "nM"},
      {"measurement": "fold induction at 2 days", "setting": "CYP2B6 [5]; [7]", "value": 0.17},
      {"measurement": "fold induction at 2 days", "setting": "CYP2B6 [5]; [8]", "value": 0.52},
      {"measurement": "fold induction at 2 days", "setting": "CYP2B6 [5]; [9]", "value": 0.45},
      {"measurement": "stability in serum", "setting": "[6]", "value": "stable in serum"},
      {"measurement": "IC50", "setting": "BCRP", "value": 1700, "unit": "nM"},
      {"measurement": "IC50", "setting": "ABCG2 (BCRP)", "value": 175, "unit": "nM"}
    ]}
  ]
}
